Experimental data taken from the kinase profiling compilation of Christmann-Franck et al. (2016).

Assays:
Assay in all cases: radiometric filter-binding kinase assay, Kinaseprofiler
[1] = tested on: AURKA (human), O14965 [I31F]; conditions: ATP 15 µM
[2] = tested on: MARK1 (human), Q9P0L2 [V16E/T20S]; conditions: ATP 10 µM
[3] = tested on: MAPKAPK2 (human), P49137 [A399G]; conditions: ATP 90 µM
[4] = tested on: MERTK (human), Q12866 [H628Q/R794A]; conditions: ATP 45 µM
[5] = tested on: RAF1 (human), P04049 [Y340D/Y341D]; conditions: ATP 45 µM
[6] = tested on: TEC (human), P42680 [F514V]; conditions: ATP 120 µM
Chain of TEC (human), P42680 [F514V] (P42680 whole entry, looked up, stated change not applied): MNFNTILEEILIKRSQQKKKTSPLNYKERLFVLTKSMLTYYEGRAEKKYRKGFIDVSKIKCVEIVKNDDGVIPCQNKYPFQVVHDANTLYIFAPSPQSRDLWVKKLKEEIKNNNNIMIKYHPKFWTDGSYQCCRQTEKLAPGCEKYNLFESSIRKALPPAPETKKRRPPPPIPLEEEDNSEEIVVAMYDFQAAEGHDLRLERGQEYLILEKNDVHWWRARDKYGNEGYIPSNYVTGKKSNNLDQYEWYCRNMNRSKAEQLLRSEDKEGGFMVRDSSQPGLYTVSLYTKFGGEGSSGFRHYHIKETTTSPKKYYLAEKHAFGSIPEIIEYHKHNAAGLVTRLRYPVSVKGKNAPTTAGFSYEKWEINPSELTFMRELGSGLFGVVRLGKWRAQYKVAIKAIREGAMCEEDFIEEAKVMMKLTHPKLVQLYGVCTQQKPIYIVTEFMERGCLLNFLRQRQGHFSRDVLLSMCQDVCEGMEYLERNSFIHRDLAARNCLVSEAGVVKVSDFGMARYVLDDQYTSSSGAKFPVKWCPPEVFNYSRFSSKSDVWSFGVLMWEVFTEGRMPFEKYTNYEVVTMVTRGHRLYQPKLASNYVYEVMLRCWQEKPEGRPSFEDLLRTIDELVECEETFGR

[7] = tested on: PRKCH (human), P24723 [V108L/G109R/L392Q]; conditions: ATP 45 µM
Chain of PRKCH (human), P24723 [V108L/G109R/L392Q] (P24723 whole entry, looked up, stated change not applied): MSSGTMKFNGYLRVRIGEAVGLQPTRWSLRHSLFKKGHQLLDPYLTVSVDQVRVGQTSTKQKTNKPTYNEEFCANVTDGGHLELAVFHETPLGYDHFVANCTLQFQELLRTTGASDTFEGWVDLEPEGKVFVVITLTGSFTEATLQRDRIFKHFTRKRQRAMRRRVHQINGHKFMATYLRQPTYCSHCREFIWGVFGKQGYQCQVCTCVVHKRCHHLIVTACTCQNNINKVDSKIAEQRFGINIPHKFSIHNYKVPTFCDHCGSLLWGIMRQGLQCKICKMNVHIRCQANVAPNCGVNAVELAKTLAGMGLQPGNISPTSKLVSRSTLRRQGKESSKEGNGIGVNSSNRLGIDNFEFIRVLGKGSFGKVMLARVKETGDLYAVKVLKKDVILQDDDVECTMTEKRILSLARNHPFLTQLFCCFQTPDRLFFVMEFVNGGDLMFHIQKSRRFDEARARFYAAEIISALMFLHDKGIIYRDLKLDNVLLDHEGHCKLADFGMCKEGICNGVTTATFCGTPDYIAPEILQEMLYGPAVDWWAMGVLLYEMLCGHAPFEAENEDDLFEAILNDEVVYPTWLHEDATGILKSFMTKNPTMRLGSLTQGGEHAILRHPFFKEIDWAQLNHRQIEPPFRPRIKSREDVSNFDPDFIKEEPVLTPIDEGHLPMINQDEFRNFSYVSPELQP

[8] = tested on: AKT2 (human), P31751 [S474D]; conditions: ATP 200 µM
Chain of AKT2 (human), P31751 [S474D] (P31751 whole entry S474D, looked up): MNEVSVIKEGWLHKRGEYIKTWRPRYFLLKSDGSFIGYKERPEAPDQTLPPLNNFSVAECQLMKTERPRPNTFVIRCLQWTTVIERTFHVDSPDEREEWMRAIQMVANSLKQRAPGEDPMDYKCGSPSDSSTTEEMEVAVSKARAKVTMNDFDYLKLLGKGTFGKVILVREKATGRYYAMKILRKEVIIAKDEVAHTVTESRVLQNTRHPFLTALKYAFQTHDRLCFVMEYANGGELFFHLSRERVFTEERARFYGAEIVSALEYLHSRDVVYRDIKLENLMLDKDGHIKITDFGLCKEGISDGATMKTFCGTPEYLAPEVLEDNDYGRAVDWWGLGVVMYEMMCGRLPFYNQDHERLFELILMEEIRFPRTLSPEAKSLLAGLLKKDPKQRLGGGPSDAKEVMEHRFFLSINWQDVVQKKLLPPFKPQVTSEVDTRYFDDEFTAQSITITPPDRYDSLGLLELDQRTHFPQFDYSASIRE

Chain of MARK1 (human), Q9P0L2 [V16E/T20S] (Q9P0L2 whole entry, looked up, stated change not applied): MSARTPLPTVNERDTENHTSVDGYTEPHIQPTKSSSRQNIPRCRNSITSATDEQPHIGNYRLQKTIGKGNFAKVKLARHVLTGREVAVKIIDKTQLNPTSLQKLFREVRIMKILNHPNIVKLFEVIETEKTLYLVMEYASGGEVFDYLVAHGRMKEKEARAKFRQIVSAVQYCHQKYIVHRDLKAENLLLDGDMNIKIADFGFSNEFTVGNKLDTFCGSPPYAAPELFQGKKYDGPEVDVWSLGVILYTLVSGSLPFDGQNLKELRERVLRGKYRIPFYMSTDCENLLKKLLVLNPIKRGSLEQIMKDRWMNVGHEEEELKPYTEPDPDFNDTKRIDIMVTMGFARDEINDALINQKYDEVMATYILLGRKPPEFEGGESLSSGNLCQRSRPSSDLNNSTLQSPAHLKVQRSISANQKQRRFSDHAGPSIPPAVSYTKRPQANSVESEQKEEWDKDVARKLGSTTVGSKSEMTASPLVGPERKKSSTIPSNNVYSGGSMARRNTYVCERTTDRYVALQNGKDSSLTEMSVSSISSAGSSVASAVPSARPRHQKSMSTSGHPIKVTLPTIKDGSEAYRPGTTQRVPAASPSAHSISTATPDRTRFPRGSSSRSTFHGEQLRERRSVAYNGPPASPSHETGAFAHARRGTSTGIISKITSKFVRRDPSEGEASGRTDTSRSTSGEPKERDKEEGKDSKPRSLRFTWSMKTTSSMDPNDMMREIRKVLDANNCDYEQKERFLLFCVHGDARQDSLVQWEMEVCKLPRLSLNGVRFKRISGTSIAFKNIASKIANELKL
Chain of MAPKAPK2 (human), P49137 [A399G] (P49137 whole entry A399G, looked up): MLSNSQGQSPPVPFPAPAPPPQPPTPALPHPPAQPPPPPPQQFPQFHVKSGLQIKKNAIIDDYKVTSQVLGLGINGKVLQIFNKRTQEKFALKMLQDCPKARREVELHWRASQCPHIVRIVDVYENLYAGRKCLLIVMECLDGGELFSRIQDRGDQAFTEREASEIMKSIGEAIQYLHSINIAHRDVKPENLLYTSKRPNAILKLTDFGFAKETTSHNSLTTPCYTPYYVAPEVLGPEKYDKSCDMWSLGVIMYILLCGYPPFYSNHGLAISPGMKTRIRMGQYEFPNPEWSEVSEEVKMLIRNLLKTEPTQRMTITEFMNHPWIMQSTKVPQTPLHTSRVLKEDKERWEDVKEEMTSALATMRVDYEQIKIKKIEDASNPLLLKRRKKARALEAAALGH
Chain of MERTK (human), Q12866 [H628Q/R794A] (Q12866 whole entry, looked up, stated change not applied): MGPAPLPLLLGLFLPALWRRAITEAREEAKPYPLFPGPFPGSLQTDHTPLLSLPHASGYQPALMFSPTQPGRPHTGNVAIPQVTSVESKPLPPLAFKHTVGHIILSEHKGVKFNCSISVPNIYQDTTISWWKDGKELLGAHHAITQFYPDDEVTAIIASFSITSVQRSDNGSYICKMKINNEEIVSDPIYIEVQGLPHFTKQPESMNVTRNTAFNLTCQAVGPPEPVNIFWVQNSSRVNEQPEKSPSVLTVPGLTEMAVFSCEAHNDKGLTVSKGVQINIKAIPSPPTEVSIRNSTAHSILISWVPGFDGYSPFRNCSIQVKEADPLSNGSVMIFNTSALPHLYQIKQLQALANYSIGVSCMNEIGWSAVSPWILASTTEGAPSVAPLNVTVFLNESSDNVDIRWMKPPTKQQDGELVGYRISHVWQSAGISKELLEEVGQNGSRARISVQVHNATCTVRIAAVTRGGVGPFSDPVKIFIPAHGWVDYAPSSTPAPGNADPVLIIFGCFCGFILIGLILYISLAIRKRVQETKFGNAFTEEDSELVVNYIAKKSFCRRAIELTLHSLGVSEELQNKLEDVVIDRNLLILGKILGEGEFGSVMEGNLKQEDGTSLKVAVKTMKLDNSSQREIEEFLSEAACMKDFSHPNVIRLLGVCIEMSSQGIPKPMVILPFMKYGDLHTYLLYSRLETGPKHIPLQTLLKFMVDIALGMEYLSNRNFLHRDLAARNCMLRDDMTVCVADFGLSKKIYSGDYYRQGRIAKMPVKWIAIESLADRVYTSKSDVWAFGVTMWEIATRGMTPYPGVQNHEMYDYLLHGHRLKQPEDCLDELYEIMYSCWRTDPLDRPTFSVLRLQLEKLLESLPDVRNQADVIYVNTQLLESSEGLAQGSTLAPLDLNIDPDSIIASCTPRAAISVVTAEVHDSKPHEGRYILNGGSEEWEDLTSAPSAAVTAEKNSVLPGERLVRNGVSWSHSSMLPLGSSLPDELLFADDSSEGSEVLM
Chain of AURKA (human), O14965 [I31F] (O14965 whole entry, looked up, stated change not applied): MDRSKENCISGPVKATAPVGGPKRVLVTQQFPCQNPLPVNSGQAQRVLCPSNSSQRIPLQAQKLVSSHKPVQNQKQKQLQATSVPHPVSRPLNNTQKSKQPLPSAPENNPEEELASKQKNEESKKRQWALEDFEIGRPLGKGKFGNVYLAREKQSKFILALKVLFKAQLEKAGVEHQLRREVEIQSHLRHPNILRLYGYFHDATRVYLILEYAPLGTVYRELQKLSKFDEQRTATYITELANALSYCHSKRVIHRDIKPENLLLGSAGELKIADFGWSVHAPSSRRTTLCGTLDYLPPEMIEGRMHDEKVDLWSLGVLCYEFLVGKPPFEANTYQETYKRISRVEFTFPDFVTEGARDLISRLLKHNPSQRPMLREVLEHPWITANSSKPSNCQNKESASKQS

Structure (SMILES): COC(=O)[C@]1(O)C[C@@H]2O[C@@]1(C)n1c3ccccc3c3c4c(c5c6ccccc6n2c5c31)C(=O)NC4
- residual activity ([1]; compound 10.0 µM): -1%
- residual activity ([2]; compound 1.0 µM): 0%
- residual activity ([2]; compound 10.0 µM): 0%
- residual activity ([3]; compound 1.0 µM): 0%
- residual activity ([3]; compound 10.0 µM): -6%
- residual activity ([4]; compound 10.0 µM): 0%

Structure (SMILES): CN[C@@H]1C[C@H]2O[C@@](C)([C@@H]1OC)n1c3ccccc3c3c4c(c5c6ccccc6n2c5c31)C(=O)NC4
- residual activity ([2]; compound 1.0 µM): 0%
- residual activity ([5]; compound 10.0 µM): 80%
- residual activity ([4]; compound 10.0 µM): 0%

Structure (SMILES): O=C1c2ccccc2-c2n[nH]c3cccc1c23
- residual activity ([1]; compound 1.0 µM): 19%
- residual activity ([1]; compound 10.0 µM): 2%
- residual activity ([6]; compound 1.0 µM): 89%
- residual activity ([6]; compound 10.0 µM): 57%
- residual activity ([7]; compound 1.0 µM): 86%
- residual activity ([7]; compound 10.0 µM): 82%
- residual activity ([2]; compound 1.0 µM): 38%
- residual activity ([2]; compound 10.0 µM): 6%
- residual activity ([3]; compound 1.0 µM): 79%
- residual activity ([3]; compound 10.0 µM): 69%
- residual activity ([8]; compound 1.0 µM): 104%
- residual activity ([8]; compound 10.0 µM): 105%
- residual activity ([5]; compound 1.0 µM): 69%
- residual activity ([5]; compound 10.0 µM): 61%
- residual activity ([4]; compound 1.0 µM): 22%
- residual activity ([4]; compound 10.0 µM): 9%

Structure (SMILES): O=C1Nc2ccccc2/C1=C1\Nc2ccccc2\C1=N/O
- residual activity ([1]; compound 1.0 µM): 7%
- residual activity ([1]; compound 10.0 µM): 0%
- residual activity ([6]; compound 1.0 µM): 64%
- residual activity ([6]; compound 10.0 µM): 22%
- residual activity ([7]; compound 1.0 µM): 91%
- residual activity ([7]; compound 10.0 µM): 83%
- residual activity ([2]; compound 1.0 µM): 37%
- residual activity ([2]; compound 10.0 µM): 5%
- residual activity ([3]; compound 1.0 µM): 101%
- residual activity ([3]; compound 10.0 µM): 76%
- residual activity ([8]; compound 1.0 µM): 98%
- residual activity ([8]; compound 10.0 µM): 92%
- residual activity ([5]; compound 1.0 µM): 89%
- residual activity ([5]; compound 10.0 µM): 66%
- residual activity ([4]; compound 1.0 µM): -2%
- residual activity ([4]; compound 10.0 µM): -3%
